Measured values taken from patent publication US20110319603A1, “METHOD FOR FLU[…] PROTEIN” (OSAKA UNIVERSITY, priority 2009, published 2011).

Experiments:
PYP [1] = target: T1, PYP (Halorhodospira halophila, UniProt P16113); test: Reaction of compound FCTP with PYP in HEK293T cell lysate, SDS-PAGE; assay type: binding
T1 construct: His tag (with enterokinase cleavage site) (N, cleaved yes); made in house; host or cells: E. coli BL21 (DE3), pET-21b(+) (pET-PYP)
T1 sequence (P16113 1-125): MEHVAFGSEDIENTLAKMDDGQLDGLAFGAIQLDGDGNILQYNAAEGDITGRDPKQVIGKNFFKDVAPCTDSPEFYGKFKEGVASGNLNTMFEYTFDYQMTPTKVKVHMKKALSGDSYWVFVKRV
Procedure: In a HEK293T cell lysate dissolved in Tris buffer (20 mM Tris-HCl, 150 mM NaCl, 1 mM TCEP (pH 8.0)), 5 μM of PYP was reacted with 50 μM of compound FCTP at 37° C. for 30 minutes in the presence or absence of 10 mM MESNa. After completion of the reaction, it was analyzed by SDS-PAGE (20% acrylamide separation gel). […] On the other hand, the fluorescent band on the high molecular weight side disappeared upon addition of MESNa (10 mM), which was a type of thiol compound. It was confirmed that an addition of a certain amount of free thiol allowed labeling to be carried out specifically in the cell lysate.

PYP [2] = target: T1, PYP; test: Fluorescent properties of FCTP (fluorescence and excitation spectra with and without PYP); details: 8 μM compound, Tris buffer pH 8.0, 37° C.
Procedure: In order to examine the fluorescent properties of compound FCTP bound to the PYP, Tris buffer (20 mM Tris-HCl, 150 mM NaCl, 1 mM TCEP (pH 8.0)), the fluorescence and excitation spectra were measured at 37° C.

PYP [3] = target: T1, PYP; test: Reaction between PYP and FCTP, analyzed by SDS-PAGE (CBB-stained and fluorescent image); assay type: binding
Procedure: In Tris buffer (20 mM Tris-HCl, 150 mM NaCl, 1 mM TCEP (pH 8.0)), 5 μM of PYP was reacted with 12.5 μM of compound FCTP at 37° C. for 24 hours. After completion of the reaction, the result was analyzed by SDS-PAGE (20% acrylamide separation gel). […] With reference to FIG. 1(b), similarly in the fluorescent image, fluorescence was observed.

[4] = tested on: PYP-TM expressed on HEK293T cells; test: Labeling reaction with FCTP in cultured cell (fluorescence microscopy); assay type: cell-based, Halorhodospira halophila; details: FCTP 20 μM, 30 minutes
Procedure: In order to express a PYP on the cell surface, a plasmid was prepared in which a gene PYP-TM obtained by fusing a PYP with the transmembrane domain of a platelet-derived growth factor receptor (PDGFR) was introduced into the multicloning site of pcDNA3.1, which is a mammalian expression vector. HEK293T cells were transfected with this plasmid by using lipofectamine 2000. After transfection with the plasmid, the HEK293T cells were allowed to stand at 37° C. for 36 hours and then washed with a phosphoric acid buffer (PBS). A culture medium containing FCTP (20 μM) was added thereto, which then was allowed to stand for 30 minutes. […] With the fluorescence microscope having an excitation wavelength of 488 nm, the cells were observed using a fluorescent filter of 510 to 550 nm.

[5] = tested on: PYP-TM expressed on HEK293T cells; test: Labeling reaction with CATP in cultured cell, PYP-TM (fluorescence microscopy); assay type: cell-based, Halorhodospira halophila; details: CATP 5 μM, 30 minutes
Procedure: (§1) A plasmid was prepared in which a gene MBP-PYP obtained by fusing a maltose binding protein (MBP) with a PYP was introduced into the multicloning site of pcDNA3.1, which was a mammalian expression vector. Furthermore, in order to express a PYP on the cell surface, a plasmid was prepared in which a gene PYP-TM obtained by fusing a PYP with the transmembrane domain of a platelet-derived growth factor receptor (PDGFR) was introduced into the multicloning site of pcDNA3.1, which was a mammalian expression vector. HEK293T cells were transfected with these plasmids by using lipofectamine 2000. After transfection with the plasmids, the HEK293T cells were allowed to stand at 37° C. for 36 hours and then washed with a phosphoric acid buffer (PBS). A culture medium containing CATP (5 μM) was added thereto, which then was allowed to stand for 30 minutes.

[6] = tested on: MBP-PYP expressed in HEK293T cells; test: Labeling reaction with CATP in cultured cell, MBP-PYP (fluorescence microscopy); assay type: cell-based, Halorhodospira halophila; details: CATP 5 μM, 30 minutes
Procedure: as §1

Compound	fluorescent labeling of PYP in cell lysate (PYP [1]; 5 μM PYP, 50 μM compound, 37° C., 30 minutes)	fluorescent band in the high molecular weight range (non-specific labeling) in cell lysate (PYP [1]; absence of MESNa)	fluorescent band on the high molecular weight side in cell lysate (PYP [1]; addition of MESNa (10 mM))	fluorescence intensity of compound in the presence of PYP (PYP [2]; 5 μM PYP, time-dependent)	fluorescence intensity of compound alone (PYP [2]; no PYP, excitation at 500 nm)	labeling of the PYP (slowly migrating band, fluorescence on gel) (PYP [3]; 5 μM PYP, 12.5 μM compound, Tris buffer pH 8.0, 37° C., 24 hours)	fluorescent labeling in cells where PYP-TM was not expressed [4]	fluorescent labeling in PYP-TM expressed cells ([4]; excitation 488 nm)	fluorescent labeling in cells where PYP-TM was not expressed [5]	fluorescent labeling in PYP-TM expressed cells ([5]; excitation 436 nm)	thioester bond between the PYP and compound upon addition of DTT (PYP [3]; DTT (100 mM) added after labeling)	fluorescent labeling in cells in which MBP-PYP was not expressed [6]	fluorescent labeling in cells in which MBP-PYP was expressed ([6]; excitation 436 nm)
O=C(NCc1cn(COCCOCCOCc2cc(O)cc3oc(=O)c(C(=O)Sc4ccccc4)cc23)nn1)c1ccc(C(=O)O)c(-c2c3ccc(=O)cc-3oc3cc(O)ccc23)c1 [FCTP]	fluorescence was observed in the vicinity of the PYP band	another fluorescent band was observed in the high molecular weight range	disappeared	increased in the presence of the PYP with the passage of time	very weak	able to label the PYP	neither fluorescent labeling with FCTP nor that with CATP was observed	observed					
[N-]=[N+]=NCCOCCOCCOCc1cc(O)cc2oc(=O)c(C(=O)Sc3ccccc3)cc12 [CATP]									neither fluorescent labeling with FCTP nor that with CATP was observed	observed	hydrolyzed by a large excess of DTT	not observed	observed
